Laboratory results: patent EP0167958A2, “Oral solid pharmaceutical form with sequential action for the administering of drugs with ulcerogenic side effect” (LABORATORIO ITALIANO BIOCHIMICO FARMACEUTICO LISAPHARMA …, priority 1984, dated 1986)

System: gastric mucosa
Experiment: test of pylorus ligature in rats (ulcerating index, inhibition of FANS-induced gastric lesions)
Type: in vivo, Charles River Wistar rats
Conditions: p.o., pylorus-ligated rats, 6 hours
Method: Several compositions containing sucralfate : FANS in weight ratios comprised within the range of from 1: 4 to 8 : 1 have been tested on rats by means of the test of pylorus ligature according to the technique Linda J. et al., J. Pharmac., 1978, 30, 244 - 246 "Inhibitors of Gastric Lesions in the Rat".
The testing has been carried out on Charles River Wis tar rats of 230 - 270 g of weight and in the number of 8 rats per each group. The rats, fasting from 15 hours, have been submitted to etheric anesthesia and then to the liga ture of the pylorus. The rats have been treated, immediate ly after the recovery, by means of gastric probe, with the FANS alone, with the FANS in the sucralfate-FANS form with sequential action according to the present invention, and by means of the administering of sucralfate first, and then, after a 10 minutes interval, of FANS.
The single active principles have been administered as aqueous suspension in sodium-CMC at 0.5% p.o.
Six hours later than the intervention, the rats have been sacrificed and the stomach, after having been withdrawn, has been cut along the line of the greater curvature. The stomach, after having been slightly washed with bidistilled water has been spread out and mounted on a support for the'evaluation of induced ulceration. The alterations detected on the gastric mucosa have been quantified on the basis of their type and largeness, with a value ranging from 0 to 1 (ulcerating index, UI), according to the following empirical scale: • 0 = mucose not damaged (control submitted to surgical handling and to placebo) • 0.25 = diffused accentuated hyperemia • 0.50 = diffused erosion • 0.75 = diffused hemorrhagic ulceration • 1 = diffused hemorrhagic ulceration with perforation and damaging of the whole gastric mucosa.
The activity of the form of sucralfate and FANS with sequential action according to the invention has been expressed as percentage inhibition of the lesion relatively to that observed in the control group as treated with the ligature of pylorus and administering of FANS only, and com pared to that obtained from the contemporary administering of sucralfate and FANS. The ID 50 (Inhibiting Dosis 50) was computated by the probit method.

## 3,4,5,6-tetra-(polyhydroxyalumino)-n-D-glu· copyranosyl sulphate - 2,3,4,5-tetra-(polyhydroxyalumino)-B-D-fructofuranoside sulphate [sucralfate]
Administering of the sucralfate-FANS form with sequential action, FANS: Diclofenac Na (50 mg/kg)
  Inhibiting Dosis 50 of sucralfate for the ulcerogenic activity of some FANS: 96.6 mg
Administering of the sucralfate-FANS form with sequential action, FANS: Indomethacin (100 mg/kg)
  Inhibiting Dosis 50 of sucralfate for the ulcerogenic activity of some FANS: 97 mg
Administering of the sucralfate-FANS form with sequential action, FANS: Sodium indoprofen betainate (200 mg/kg as indoprofen)
  Inhibiting Dosis 50 of sucralfate for the ulcerogenic activity of some FANS: 85.6 mg
Contemporary administering of sucralfate and of FANS, FANS: Diclofenac Na (50 mg/kg)
  Inhibiting Dosis 50 of sucralfate for the ulcerogenic activity of some FANS: 157 mg
Contemporary administering of sucralfate and of FANS, FANS: Indomethacin (100 mg/kg)
  Inhibiting Dosis 50 of sucralfate for the ulcerogenic activity of some FANS: 204 mg
Contemporary administering of sucralfate and of FANS, FANS: Sodium indoprofen betainate (200 mg/kg as indoprofen)
  Inhibiting Dosis 50 of sucralfate for the ulcerogenic activity of some FANS: 206 mg
